Test results published in publication PMC7072245, “Macromolecular Crowding Increases the Affinity of the PHD of ING4 for the Histone H3K4me3 Mark” (Biomolecules, 2020).
Where two headings read alike, the source gives them in different places. Where no end group is shown, it is not given here. [ ]: non-standard residue; d: D form. Lys(Me3) = C[N+](C)(C)CCCC[C@H](N)C(=O)O; Lys(Me2) = CN(C)CCCC[C@H](N)C(=O)O

T1: Plant Homeodomain (PHD) of ING4 (uniformly 15N enriched (NMR samples))
T1 chain: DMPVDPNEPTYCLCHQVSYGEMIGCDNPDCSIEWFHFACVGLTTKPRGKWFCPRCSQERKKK

B1: histone H3 peptide (residues 1-15 plus C-terminal Tyr) trimethylated at lysine 4 (peptide)
peptide: ART[Lys(Me3)]QTARKSTGGKAY
notes: histone H3 N-terminal tail, residues 1-15; extra Tyr residue at the C-terminus for concentration measurement by UV absorbance; also called H3K4me3; H3K4me3 peptide
B2: histone H3 peptide (residues 1-15 plus C-terminal Tyr) dimethylated at lysine 4 (peptide)
peptide: ART[Lys(Me2)]QTARKSTGGKAY
notes: histone H3 N-terminal tail, residues 1-15; extra Tyr residue at the C-terminus for concentration measurement by UV absorbance; also called H3K4me2
B3: histone H3 peptide (residues 1-15 plus C-terminal Tyr), unmethylated at lysine 4 (peptide)
peptide: ARTKQTARKSTGGKAY
notes: histone H3 N-terminal tail, residues 1-15; extra Tyr residue at the C-terminus for concentration measurement by UV absorbance; also called H3K4me0; unmethylated histone H3 tail

Tests used:
PHD of ING4 = biological target: T2, PHD of ING4 (Homo sapiens, UniProt Q9UNL4); assay: NMR titration of ING4-PHD with histone H3 peptides (CSP of W237 amide, 1H-15N HSQC); format: binding
T2 construct: we did the titration by NMR on a sample of 10 µM PHD of ING4
Method: These contained 50 or 10 µM uniformly -^15N enriched PHD in 20 mM sodium phosphate pH 6.5, 50 mM NaCl, 1 mM perdeuterated dithiotreitol, 5% (v/v) ^2H2O, and 0.01% (w/v) NaN3, plus different concentrations of Ficoll 70. […] Thus, the NMR titrations were completed in less than 24 h. NMR spectra were recorded at 25 °C on a BRUKER Avance III 800 spectrometer equipped with a TCI cryogenically cooled probe. At a concentration of 50 µM PHD, ^1H-^15N Heteronuclear Single Quantum Coherence (HSQC) spectra could be recorded in about 2 h with sufficient quality to measure the chemicals shift perturbations on peptide addition. At 10 µM PHD concentration, HSQC were recorded with only 16 t1 points and a ^15N spectral width of 10 ppm. […] In this way, the full titration of ING4-PHD with the histone peptide could be measured in less than 24 h.
Next, we measured the affinity of the binding in presence of Ficoll, by means of a NMR titration of the PHD with H3K4me3 peptide but in presence of 15% Ficoll (Figure 2). For binding analysis, we used the backbone amide signal of amino acid W237 because it experiences a large CSP upon peptide binding and is well isolated in a region of the spectrum with few other signals. […] This makes it necessary to reduce the protein concentration of the experiment.
On the other hand, the presence of 15% Ficoll 70 lowered the signal to noise ratio of the NMR experiment as signals got broader due to the increased viscosity of sample. So, we had to decrease the protein concentration of the experiment but not so much as to lose the signals in the noise. […] In these conditions, we could record ^1H-^15N HSQC experiments in 2 h and complete the titration in less than 1 day.
Once we got the optimum conditions, we did the titration by NMR on a sample of 10 µM PHD of ING4 in the presence of increasing amounts of H3K4me3 peptide (Figure 3).
Titrations at different percentages of Ficoll (0, 5, and 10 %) were done by NMR in a same manner as the titration at 15% Ficoll.

[1] = biological target: T1, Plant Homeodomain (PHD) of ING4; assay: NMR titration; PHD titrated with peptide, 0% Ficoll 70; 20 mM sodium phosphate pH 6.5, 50 mM NaCl, 1 mM DTT, 25 °C; CSP of W237 amide; conditions: both partners purified
[2] = biological target: T1, Plant Homeodomain (PHD) of ING4; assay: NMR titration; 10 µM 15N PHD titrated with peptide, 15% Ficoll 70; 20 mM sodium phosphate pH 6.5, 50 mM NaCl, 1 mM DTT, 25 °C; CSP of W237 amide in 1H-15N HSQC, single site fit; conditions: both partners purified

Row | Molecule | Kd (PHD of ING4) [nM] | Kd [2] [nM] | other results
1 | CNCCCC[C@H](NC(=O)[C@@H](NC(=O)[C@H](CCCNC(=N)N)NC(=O)[C@H](C)N)[C@@H](C)O)C(=O)N[C@@H](CCC(N)=O)C(=O)N[C@H](C(=O)N[C@@H](C)C(=O)N[C@@H](CCCNC(=N)N)C(=O)N[C@@H](CCCCN)C(=O)N[C@@H](CO)C(=O)N[C@H](C(=O)NCC(=O)NCC(=O)N[C@@H](CCCCN)C(=O)N[C@@H](C)C(=O)N[C@@H](Cc1ccc(O)cc1)C(=O)O)[C@@H](C)O)[C@@H](C)O [H3K4me1] | 12000 ± 4000 |  | 
2 | C[C@H](N)C(=O)N[C@@H](CCCNC(=N)N)C(=O)N[C@H](C(=O)N[C@@H](CCCCN(C)C)C(=O)N[C@@H](CCC(N)=O)C(=O)N[C@H](C(=O)N[C@@H](C)C(=O)N[C@@H](CCCNC(=N)N)C(=O)N[C@@H](CCCCN)C(=O)N[C@@H](CO)C(=O)N[C@H](C(=O)NCC(=O)NCC(=O)N[C@@H](CCCCN)C(=O)N[C@@H](C)C(=O)N[C@@H](Cc1ccc(O)cc1)C(=O)O)[C@@H](C)O)[C@@H](C)O)[C@@H](C)O [H3K4me2] | 1400 ± 600 |  | 
3 | C[C@H](N)C(=O)N[C@@H](CCCNC(=N)N)C(=O)N[C@H](C(=O)N[C@@H](CCCC[N+](C)(C)C)C(=O)N[C@@H](CCC(N)=O)C(=O)N[C@H](C(=O)N[C@@H](C)C(=O)N[C@@H](CCCNC(=N)N)C(=O)N[C@@H](CCCCN)C(=O)N[C@@H](CO)C(=O)N[C@H](C(=O)NCC(=O)NCC(=O)N[C@@H](CCCCN)C(=O)N[C@@H](C)C(=O)N[C@@H](Cc1ccc(O)cc1)C(=O)O)[C@@H](C)O)[C@@H](C)O)[C@@H](C)O [H3K4me3] | 400 ± 300 |  | Kd (PHD of ING4; absence of Ficoll (0%), NMR, 20 mM sodium phosphate pH 6.5, 50 mM NaCl, 25 °C, read-out: KD): 3900 ± 700 nM
4 | B1 |  | 400 ± 300 | Kd [1]: 3900 ± 700 nM
5 | B2 |  | 1400 ± 600 | 
6 | B3 |  | 100000 ± 10000 | 
